Experimental data from the NIST ThermoML archive (doi:10.1007/s10765-008-0535-5).
± gives the expanded uncertainty stated by the source.

Assay: molar heat capacity at constant volume
Conditions: Liquid, Vacuum adiabatic calorimetry

FCF [difluoromethane]
Conditions | molar heat capacity at constant volume [J/K/mol]
268.15 K, 8268 kPa | 49.47 ± 1.6
268.15 K, 8502 kPa | 48.8 ± 1.6
269.15 K, 9280 kPa | 49.32 ± 1.6
269.15 K, 9512 kPa | 49.68 ± 1.6
270.15 K, 10291 kPa | 49.47 ± 1.6
270.15 K, 10521 kPa | 49.84 ± 1.6
271.15 K, 11302 kPa | 49.42 ± 1.6
271.15 K, 11531 kPa | 49.53 ± 1.6
272.15 K, 12312 kPa | 49.94 ± 1.6
272.15 K, 12421 kPa | 50.57 ± 1.6
272.15 K, 12540 kPa | 49.06 ± 1.6
273.15 K, 13321 kPa | 49.06 ± 1.6
273.15 K, 13429 kPa | 49.79 ± 1.6
273.15 K, 13551 kPa | 50.25 ± 1.6
274.15 K, 14330 kPa | 49.94 ± 1.6
274.15 K, 14438 kPa | 49.63 ± 1.6
274.15 K, 14560 kPa | 49.37 ± 1.6
275.15 K, 15337 kPa | 49.47 ± 1.6
275.15 K, 15444 kPa | 49.84 ± 1.6
275.15 K, 15568 kPa | 49.47 ± 1.6
276.15 K, 16344 kPa | 49.89 ± 1.6
276.15 K, 16452 kPa | 49.84 ± 1.6
276.15 K, 16577 kPa | 49.73 ± 1.6
277.15 K, 17350 kPa | 49.32 ± 1.6
277.15 K, 17457 kPa | 49.63 ± 1.6
277.15 K, 17583 kPa | 49.99 ± 1.6
278.15 K, 18354 kPa | 49.89 ± 1.6
278.15 K, 18462 kPa | 50.25 ± 1.6
278.15 K, 18589 kPa | 49.47 ± 1.6
279.15 K, 19358 kPa | 49.89 ± 1.6
279.15 K, 19465 kPa | 49.79 ± 1.6
279.15 K, 19595 kPa | 50.15 ± 1.6
280.15 K, 20361 kPa | 49.63 ± 1.6
280.15 K, 20468 kPa | 50.2 ± 1.6
280.15 K, 20598 kPa | 49.99 ± 1.6
281.15 K, 21363 kPa | 50.46 ± 1.6
281.15 K, 21470 kPa | 49.63 ± 1.6
281.15 K, 21601 kPa | 49.89 ± 1.6
282.15 K, 22363 kPa | 49.58 ± 1.6
282.15 K, 22472 kPa | 50.25 ± 1.6
282.15 K, 22602 kPa | 50.05 ± 1.6
283.15 K, 23363 kPa | 50.41 ± 1.6
283.15 K, 23473 kPa | 50.15 ± 1.6
283.15 K, 23603 kPa | 49.94 ± 1.6
284.15 K, 24362 kPa | 50.31 ± 1.6
284.15 K, 24472 kPa | 49.94 ± 1.6
284.15 K, 24606 kPa | 50.25 ± 1.6
285.15 K, 25359 kPa | 50.15 ± 1.6
285.15 K, 25470 kPa | 50.51 ± 1.6
285.15 K, 25603 kPa | 50.25 ± 1.6
286.15 K, 26356 kPa | 50.51 ± 1.6
286.15 K, 26466 kPa | 50.62 ± 1.6
286.15 K, 26598 kPa | 50.2 ± 1.6
287.15 K, 27351 kPa | 50.36 ± 1.6
287.15 K, 27461 kPa | 50.2 ± 1.6
287.15 K, 27594 kPa | 50.36 ± 1.6
288.15 K, 28345 kPa | 50.57 ± 1.6
288.15 K, 28454 kPa | 50.62 ± 1.6
288.15 K, 28588 kPa | 50.41 ± 1.6
289.15 K, 5774 kPa | 51.24 ± 1.7
